Experimental data reported in PubChem BioAssay (NCI).
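GI50: concentration for 50% inhibition of growth. TGI: total growth inhibition.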

Columns and labels:
Experiment in all cases: NCI anticancer screen, dose series, 384-well format
[1] = test system: RXF 393 renal
[2] = test system: A549 NSCLC
[3] = test system: NCI-H23 lung
[4] = test system: NCI/ADR-RES ovarian
[5] = test system: SN12C renal
[6] = test system: K-562 leukemia
[7] = test system: HL-60(TB) leukemia
[8] = test system: HT29 colon
[9] = test system: 786-0 renal
[10] = test system: MCF7 breast
[11] = test system: UO-31 renal
[12] = test system: SR leukemia
[13] = test system: OVCAR-4 ovarian
[14] = test system: SNB-19 CNS
[15] = test system: HCT-116 colon
[16] = test system: ACHN renal
[17] = test system: A498 renal
[18] = test system: IGROV1 ovarian
[19] = test system: OVCAR-8 ovarian
[20] = test system: HOP-62 NSCLC
[21] = test system: SF-295 CNS
[22] = test system: CCRF-CEM leukemia
[23] = test system: LOX IMVI melanoma
[24] = test system: NCI-H522 lung
[25] = test system: MALME-3M melanoma
[26] = test system: NCI-H226 lung
[27] = test system: UACC-257 melanoma
[28] = test system: HS 578T breast
[29] = test system: SK-OV-3 ovarian
[30] = test system: HCC-2998 colon
[31] = test system: MDA-MB-435 melanoma
[32] = test system: MOLT-4 leukemia
[33] = test system: COLO 205 colon
[34] = test system: SK-MEL-28 melanoma
[35] = test system: NCI-H322M lung
[36] = test system: DU-145 prostate
[37] = test system: SF-539 CNS
[38] = test system: SK-MEL-5 melanoma
[39] = test system: KM12 colon
[40] = test system: SF-268 CNS
[41] = test system: SNB-75 CNS
[42] = test system: U251 glioblastoma
[43] = test system: HOP-92 NSCLC
[44] = test system: BT-549 breast
[45] = test system: SW-620 colon
[46] = test system: M14 melanoma
[47] = test system: UACC-62 melanoma
[48] = test system: NCI-H460 NSCLC
[49] = test system: MDA-MB-468 breast
[50] = test system: EKVX NSCLC
[51] = test system: HCT-15 colon
[52] = test system: MDA-MB-231 breast
[53] = test system: RPMI-8226 leukemia
[54] = test system: OVCAR-3 ovarian
[55] = test system: T-47D breast
[56] = test system: CAKI-1 renal
[57] = test system: TK-10 renal
[58] = test system: PC-3 prostate

CC(=O)N1c2ccc(-c3ccc(C(=O)O)cc3)cc2[C@H](Nc2ccc(Cl)cc2)C[C@@H]1C
GI50 [1]: 702 nM | TGI [1]: 20800 nM | GI50 [2]: 456 nM | TGI [2]: 18600 nM | GI50 [3]: 137 nM | TGI [3]: 11400 nM | GI50 [4]: 129 nM | TGI [4]: 3300 nM | GI50 [5]: 108 nM | TGI [5]: 20900 nM | GI50 [6]: 84.2 nM | TGI [6]: 16800 nM | GI50 [7]: < 10 nM | TGI [7]: 25.9 nM | GI50 [8]: 73.3 nM | TGI [8]: 15700 nM | GI50 [9]: 74.9 nM | TGI [9]: 24200 nM | GI50 [10]: 19.5 nM | TGI [10]: 10200 nM | GI50 [11]: 200 nM | TGI [11]: 13000 nM | GI50 [12]: < 10 nM | TGI [12]: 50.2 nM | GI50 [13]: 104 nM | TGI [13]: 659 nM | GI50 [14]: 166 nM | TGI [14]: 27000 nM | GI50 [15]: 180 nM | TGI [15]: 12800 nM | GI50 [16]: 558 nM | TGI [16]: 19700 nM | GI50 [17]: 239 nM | TGI [17]: 13500 nM | GI50 [18]: 75.6 nM | TGI [18]: 18800 nM | GI50 [19]: 77 nM | TGI [19]: 3100 nM | GI50 [20]: 47.8 nM | TGI [20]: 7200 nM | GI50 [21]: 975 nM | TGI [21]: 17300 nM | GI50 [22]: 60.5 nM | TGI [22]: 8770 nM | GI50 [23]: 48.1 nM | TGI [23]: 209 nM | GI50 [24]: 24.3 nM | TGI [24]: 1310 nM | GI50 [25]: 30.9 nM | TGI [25]: 1600 nM | GI50 [26]: 57.4 nM | TGI [26]: 2510 nM | GI50 [27]: 192 nM | TGI [27]: 53600 nM | GI50 [28]: 20.7 nM | TGI [28]: 185 nM | GI50 [29]: 101 nM | TGI [29]: 14100 nM | GI50 [30]: 62.8 nM | TGI [30]: 676 nM | GI50 [31]: 669 nM | TGI [31]: 42600 nM | GI50 [32]: 54.1 nM | TGI [32]: 2060 nM | GI50 [33]: 146 nM | TGI [33]: 10900 nM | GI50 [34]: 89.5 nM | TGI [34]: 15000 nM | GI50 [35]: 201 nM | TGI [35]: 13300 nM | GI50 [36]: 638 nM | TGI [36]: > 100000 nM | GI50 [37]: 314 nM | TGI [37]: 11200 nM | GI50 [38]: 208 nM | TGI [38]: 13100 nM | GI50 [39]: 193 nM | TGI [39]: 15500 nM | GI50 [40]: 386 nM | TGI [40]: 19500 nM | GI50 [41]: 213 nM | TGI [41]: 49300 nM | GI50 [42]: 488 nM | TGI [42]: 21700 nM | GI50 [43]: 49.7 nM | TGI [43]: 16400 nM | GI50 [44]: 43 nM | TGI [44]: 11400 nM | GI50 [45]: 2990 nM | TGI [45]: 22000 nM | GI50 [46]: 144 nM | TGI [46]: 15500 nM | GI50 [47]: 22.2 nM | TGI [47]: 2740 nM | GI50 [48]: 467 nM | TGI [48]: 15400 nM | GI50 [49]: 171 nM | TGI [49]: 10500 nM | GI50 [50]: 1390 nM | TGI [50]: 46400 nM | GI50 [51]: 53.5 nM | TGI [51]: 10300 nM | GI50 [52]: 61.8 nM | TGI [52]: 75200 nM | GI50 [53]: < 10 nM | TGI [53]: 108 nM | GI50 [54]: 57 nM | TGI [54]: 11300 nM | GI50 [55]: 240 nM | TGI [55]: 12400 nM | GI50 [56]: 31.3 nM | TGI [56]: 2560 nM | GI50 [57]: 48.6 nM | TGI [57]: 2650 nM | GI50 [58]: 369 nM | TGI [58]: 20600 nM
